In patent US20160326142A1, “PYRAZOLE CARBOXAMIDE COMPOUNDS, COMPOSITIONS AND METHODS OF USE” (Genentech, Inc., priority 2012, published 2016):

What follows are compounds tested against T1, ITK (Homo sapiens, UniProt Q08881) (assay: ITK enzyme assay (Caliper or LCMS peptide phosphorylation)). Conditions: purified ITK (Invitrogen PV3875), 20 μM ATP, Ki by Morrison's quadratic equation.
T1 construct: purchased Invitrogen PV3875
T1 sequence (Q08881 1-620): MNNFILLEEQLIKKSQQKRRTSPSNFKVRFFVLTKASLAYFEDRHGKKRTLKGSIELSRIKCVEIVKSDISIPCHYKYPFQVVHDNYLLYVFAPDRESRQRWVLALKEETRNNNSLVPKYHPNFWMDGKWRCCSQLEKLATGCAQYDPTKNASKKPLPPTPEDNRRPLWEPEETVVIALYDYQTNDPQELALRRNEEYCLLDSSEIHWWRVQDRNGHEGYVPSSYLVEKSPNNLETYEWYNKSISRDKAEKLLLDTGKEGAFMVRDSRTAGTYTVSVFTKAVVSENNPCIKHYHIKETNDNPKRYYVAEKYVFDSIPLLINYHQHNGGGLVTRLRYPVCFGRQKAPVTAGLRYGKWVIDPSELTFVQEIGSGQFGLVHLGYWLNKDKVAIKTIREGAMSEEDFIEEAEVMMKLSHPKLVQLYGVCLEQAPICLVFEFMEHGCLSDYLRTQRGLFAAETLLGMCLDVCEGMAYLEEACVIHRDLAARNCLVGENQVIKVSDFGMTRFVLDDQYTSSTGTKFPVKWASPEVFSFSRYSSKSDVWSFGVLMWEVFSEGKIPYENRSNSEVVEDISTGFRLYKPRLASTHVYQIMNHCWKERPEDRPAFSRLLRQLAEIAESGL
Assay type: biochemical
How it was run: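 Ki values come from Morrison quadratic fits of activity versus inhibitor concentration, adjusted for ATP-competitive inhibition against ATP/Km,app. Substrate and phosphopeptide from purified ITK reactions were resolved either microfluidically (Caliper, EDTA stop) or by LC-MS MRM (TCA stop).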

SMILES	Ki [nM]
CN1CCN(CC(c2ccccc2)n2cc(NC(=O)c3n[nH]c4c3CCC(C)(C)C4)cn2)C1=O (single isomer, unassigned) [Example 131b, 6,6-dimethyl-N-(1-(2-(3-methyl-2-oxoimidazolidin-1-yl)-1-phenylethyl)-1H-pyrazol-4-yl)-4,5,6,7-tetrahydro-1H-indazole-3-carboxamide]	11
CC1(C)CCc2c(C(=O)Nc3cnn(C4COCC4c4ccccc4)c3)n[nH]c2C1 (single isomer, unassigned) [Example 132a, 6,6-dimethyl-N-(1-(4-phenyltetrahydrofuran-3-yl)-1H-pyrazol-4-yl)-4,5,6,7-tetrahydro-1H-indazole-3-carboxamide]	77
CC1(C)CCc2c(C(=O)Nc3cnn(C4COCC4c4ccccc4)c3)n[nH]c2C1 (single isomer, unassigned) [Example 132b, 6,6-dimethyl-N-(1-(4-phenyltetrahydrofuran-3-yl)-1H-pyrazol-4-yl)-4,5,6,7-tetrahydro-1H-indazole-3-carboxamide]	10
CC1(C)CCc2c(C(=O)Nc3cnn(C(c4ccnc(N)c4)C4CCOCC4)c3)n[nH]c2C1 (single isomer, unassigned) [Example 133a, N-(1-((2-aminopyridin-4-yl)(tetrahydro-2H-pyran-4-yl)methyl)-1H-pyrazol-4-yl)-6,6-dimethyl-4,5,6,7-tetrahydro-1H-indazole-3-carboxamide]	0.4
CC1(C)CCc2c(C(=O)Nc3cnn([C@@H]4COC[C@H]4c4ccccc4)c3)n[nH]c2C1 (single isomer, unassigned) [Example 135b, 6,6-dimethyl-N-(1-(4-phenyltetrahydrofuran-3-yl)-1H-pyrazol-4-yl)-4,5,6,7-tetrahydro-1H-indazole-3-carboxamide]	14
CC1CC(C(c2ccccc2)n2cc(NC(=O)c3n[nH]c4c3CCC(C)(C)C4)cn2)CCS1(=O)=O (single isomer, unassigned) [Example 139a, 6,6-dimethyl-N-(1-((2-methyl-1,1-dioxidotetrahydro-2H-thiopyran-4-yl)(phenyl)methyl)-1H-pyrazol-4-yl)-4,5,6,7-tetrahydro-1H-indazole-3-carboxamide]	1
CC1CC(C(c2ccccc2)n2cc(NC(=O)c3n[nH]c4c3CCC(C)(C)C4)cn2)CCS1(=O)=O (single isomer, unassigned) [Example 139b, 6,6-dimethyl-N-(1-((2-methyl-1,1-dioxidotetrahydro-2H-thiopyran-4-yl)(phenyl)methyl)-1H-pyrazol-4-yl)-4,5,6,7-tetrahydro-1H-indazole-3-carboxamide]	0.7
CC1CC(C(c2ccccc2)n2cc(NC(=O)c3n[nH]c4c3CCC(C)(C)C4)cn2)CCS1(=O)=O (single isomer, unassigned) [Example 139e, 6,6-dimethyl-N-(1-((2-methyl-1,1-dioxidotetrahydro-2H-thiopyran-4-yl)(phenyl)methyl)-1H-pyrazol-4-yl)-4,5,6,7-tetrahydro-1H-indazole-3-carboxamide]	1
CC1(C)CCc2c(C(=O)Nc3cnn(C(c4ccccc4)C4CC[N+](C)([O-])CC4)c3)n[nH]c2C1 (single isomer, unassigned) [Example 140b, 4-((4-(6,6-dimethyl-4,5,6,7-tetrahydro-1H-indazole-3-carboxamido)-1H-pyrazol-1-yl)(phenyl)methyl)-1-methylpiperidine 1-oxide]	14

The remaining lines, values ahead:

Ki [nM]	SMILES
2	CC1(C)CCc2c(C(=O)Nc3cnn(C(c4ccnc(N)c4)C4CCOCC4)c3)n[nH]c2C1 (single isomer, unassigned) [Example 133b, N-(1-((2-aminopyridin-4-yl)(tetrahydro-2H-pyran-4-yl)methyl)-1H-pyrazol-4-yl)-6,6-dimethyl-4,5,6,7-tetrahydro-1H-indazole-3-carboxamide]
130	CC1(C)CCc2c(C(=O)Nc3cnn([C@@H]4COC[C@H]4c4ccccc4)c3)n[nH]c2C1 (single isomer, unassigned) [Example 135a, 6,6-dimethyl-N-(1-(4-phenyltetrahydrofuran-3-yl)-1H-pyrazol-4-yl)-4,5,6,7-tetrahydro-1H-indazole-3-carboxamide]
12	CC1CC(C(c2ccccc2)n2cc(NC(=O)c3n[nH]c4c3CCC(C)(C)C4)cn2)CCS1(=O)=O (single isomer, unassigned) [Example 139c, 6,6-dimethyl-N-(1-((2-methyl-1,1-dioxidotetrahydro-2H-thiopyran-4-yl)(phenyl)methyl)-1H-pyrazol-4-yl)-4,5,6,7-tetrahydro-1H-indazole-3-carboxamide]
12	CC1CC(C(c2ccccc2)n2cc(NC(=O)c3n[nH]c4c3CCC(C)(C)C4)cn2)CCS1(=O)=O (single isomer, unassigned) [Example 139d, 6,6-dimethyl-N-(1-((2-methyl-1,1-dioxidotetrahydro-2H-thiopyran-4-yl)(phenyl)methyl)-1H-pyrazol-4-yl)-4,5,6,7-tetrahydro-1H-indazole-3-carboxamide]
0.6	CC1CC(C(c2ccccc2)n2cc(NC(=O)c3n[nH]c4c3CCC(C)(C)C4)cn2)CCS1(=O)=O (single isomer, unassigned) [Example 139f, 6,6-dimethyl-N-(1-((2-methyl-1,1-dioxidotetrahydro-2H-thiopyran-4-yl)(phenyl)methyl)-1H-pyrazol-4-yl)-4,5,6,7-tetrahydro-1H-indazole-3-carboxamide]
8	CC1CC(C(c2ccccc2)n2cc(NC(=O)c3n[nH]c4c3CCC(C)(C)C4)cn2)CCS1(=O)=O (single isomer, unassigned) [Example 139g, 6,6-dimethyl-N-(1-((2-methyl-1,1-dioxidotetrahydro-2H-thiopyran-4-yl)(phenyl)methyl)-1H-pyrazol-4-yl)-4,5,6,7-tetrahydro-1H-indazole-3-carboxamide]
12	CC1CC(C(c2ccccc2)n2cc(NC(=O)c3n[nH]c4c3CCC(C)(C)C4)cn2)CCS1(=O)=O (single isomer, unassigned) [Example 139h, 6,6-dimethyl-N-(1-((2-methyl-1,1-dioxidotetrahydro-2H-thiopyran-4-yl)(phenyl)methyl)-1H-pyrazol-4-yl)-4,5,6,7-tetrahydro-1H-indazole-3-carboxamide]
0.4	CC1(C)CCc2c(C(=O)Nc3cnn(C(c4ccccc4)C4CC[N+](C)([O-])CC4)c3)n[nH]c2C1 (single isomer, unassigned) [Example 140a, 4-((4-(6,6-dimethyl-4,5,6,7-tetrahydro-1H-indazole-3-carboxamido)-1H-pyrazol-1-yl)(phenyl)methyl)-1-methylpiperidine 1-oxide]
< 0.1	CC12Cc3[nH]nc(C(=O)Nc4cnn(C(c5ccccc5)C5CC[S+]([O-])CC5)c4)c3CC1C2(F)F (single isomer, unassigned) [Example 142a, 5,5-difluoro-5a-methyl-N-(1-((1-oxidotetrahydro-2H-thiopyran-4-yl)(phenyl)methyl)-1H-pyrazol-4-yl)-1,4,4a,5,5a,6-hexahydrocyclopropa[f]indazole-3-carboxamide]
< 0.1	CC12Cc3[nH]nc(C(=O)Nc4cnn(C(c5ccccc5)C5CC[S+]([O-])CC5)c4)c3CC1C2(F)F (single isomer, unassigned) [Example 142b, 5,5-difluoro-5a-methyl-N-(1-((1-oxidotetrahydro-2H-thiopyran-4-yl)(phenyl)methyl)-1H-pyrazol-4-yl)-1,4,4a,5,5a,6-hexahydrocyclopropa[f]indazole-3-carboxamide]
< 0.1	CC12Cc3[nH]nc(C(=O)Nc4cnn(C(c5ccccc5)C5CCCCS5(=O)=O)c4)c3CC1C2 (single isomer, unassigned) [Example 143a, N-(1-((1,1-dioxidotetrahydro-2H-thiopyran-2-yl)(phenyl)methyl)-1H-pyrazol-4-yl)-5a-methyl-1,4,4a,5,5a,6-hexahydrocyclopropa[f]indazole-3-carboxamide]
2	CC12Cc3[nH]nc(C(=O)Nc4cnn(C(c5ccccc5)C5CCCCS5(=O)=O)c4)c3CC1C2 (single isomer, unassigned) [Example 143b, N-(1-((1,1-dioxidotetrahydro-2H-thiopyran-2-yl)(phenyl)methyl)-1H-pyrazol-4-yl)-5a-methyl-1,4,4a,5,5a,6-hexahydrocyclopropa[f]indazole-3-carboxamide]
2	CC12Cc3[nH]nc(C(=O)Nc4cnn(C(c5ccccc5)C5CCCCS5(=O)=O)c4)c3CC1C2 (single isomer, unassigned) [Example 143c, N-(1-((1,1-dioxidotetrahydro-2H-thiopyran-2-yl)(phenyl)methyl)-1H-pyrazol-4-yl)-5a-methyl-1,4,4a,5,5a,6-hexahydrocyclopropa[f]indazole-3-carboxamide]
< 0.1	CC12Cc3[nH]nc(C(=O)Nc4cnn(C(c5ccccc5)C5CCCCS5(=O)=O)c4)c3CC1C2 (single isomer, unassigned) [Example 143d, N-(1-((1,1-dioxidotetrahydro-2H-thiopyran-2-yl)(phenyl)methyl)-1H-pyrazol-4-yl)-5a-methyl-1,4,4a,5,5a,6-hexahydrocyclopropa[f]indazole-3-carboxamide]
